Measured values: patent publication US6514692B2, “Method for treatment of immunodeficiency virus infection” (priority 1996, dated 2003)
Several values for one entry are separate records, joined by “and”; a condition that tells them apart may be missing. Identical values can stand only once. Where no end group is shown, it is not given here.

Assays:
ME180 cells = assay: toxicity (XTT) in transmission inhibition assay; conditions: for TOXICITY VALUES (XTT), single samples: samples 1-3
Description: (§1) ME180 cells, a cervical epithelial cell line, were obtained from the American Type Culture Collection. These cells were thawed from liquid nitrogen and grown in RPMI 1640 medium supplemented with 10t fetal bovine serum, glutamine and antibiotics. The cells were adherent and were trypsinized (0.5% trypsin in HBSS) to remove them from the flask for passaging and use in assays. For use in the microtiter transmission inhibition assay, ME180 cells were trypsinized, washed and seeded in 96-well flat bottom microtiter plates (COSTAR) at a density of 5×10^3 cells per well. The cells were incubated at 37° C. for 24 hours prior to the tart of the assay. H9 cells chronically infected with he SK1 isolate of HIV-1 were treated with 200 μg/ml mitomycin C for 60 minutes at 37° C. After treatment the cells were washed three times with tissue culture medium. The chronically infected lymphocytes were added to each well at a density of 2×10^4 cells per well. The concentration of mitomycin C used in the treatment of the lymphocytes was chosen to allow lymphocyte survival for the period of time required to transmit virus to the uninfected ME180 cells, but to die prior to the time of assay so as not to contribute to the p24 signal used as the endpoint (see below). In the transmission assay the lytic peptides D4E1 and D2A21, with and without 150 μg/ml pig mucin, were added prior to the addition of chronically infected cells or were mixed with the chronically infected cells prior to their addition to the monolayer of ME180 cells. Mucin was included because it is an abundant constituent of the normal vaginal secretions of a human being, thus any chemotherapeutic agent targeting HIV should be active in its presence if it is to have clinical value. […] The lymphocytes and peptide were co-cultured with the ME180 cells for 6 hours and then removed by washing the ME180 monolayer four times with PBS. The plate was then incubated at 37° C. for six days. Medium was removed and changed every 48 hours during the incubation stage. No further peptide was added after the initial dose. At six days post-co-cultivation, the supernatant was removed from the wells and evaluated for the quantity of p24 antigen by ELISA. The ELISA was performed according to the manufacturer's recommendations. The amount of virus production in wells treated with various concentrations of the peptides was evaluated with appropriate cell and virus controls. Data are reported as a percent of virus control at each drug concentration. Linear regression analysis was used to calculate the […] and IC95 concentrations of the transmission inhibitor. […] TI represents the toxicity index, which is the ratio of the TC50/IC50, and is an indication of the relative concentrations window that exists between efficacy and toxicity.

in vitro = conditions: human, ME180 cells
Description: as §1

[1] = 0.32 μg/ml, with 150 μg/ml pig mucin
[2] = 1 μg/ml, with 150 μg/ml pig mucin
[3] = 3.2 μg/ml, with 150 μg/ml pig mucin
[4] = 10 μg/ml, with 150 μg/ml pig mucin
[5] = 32 μg/ml, with 150 μg/ml pig mucin
[6] = 100 μg/ml, with 150 μg/ml pig mucin

For FKLRAKIKVRLRAKIKL [D4E1], the “TOXICITY VALUES (XTT), MEAN” value (ME180 cells; 0.32 μg/ml, no mucin) was 0.521 O.D. @ 450/650 nm, the “TOXICITY VALUES (XTT), single samples” value (ME180 cells; 0.32 μg/ml, no mucin) was 0.518 O.D. @ 450/650 nm and 0.528 O.D. @ 450/650 nm and 0.516 O.D. @ 450/650 nm and the “TOXICITY VALUES (XTT), MEAN” value (ME180 cells; [1]) was 0.521 O.D. @ 450/650 nm. The “TOXICITY VALUES (XTT), single samples” value (ME180 cells; [1]) was 0.518 O.D. @ 450/650 nm and 0.528 O.D. @ 450/650 nm, the “TOXICITY VALUES (XTT), MEAN” value (ME180 cells; 1 μg/ml, no mucin) was 0.523 O.D. @ 450/650 nm and the “TOXICITY VALUES (XTT), single samples” value (ME180 cells; 1 μg/ml, no mucin) was 0.535 O.D. @ 450/650 nm and 0.523 O.D. @ 450/650 nm and 0.511 O.D. @ 450/650 nm. The “TOXICITY VALUES (XTT), MEAN” value (ME180 cells; [2]) was 0.523 O.D. @ 450/650 nm, the “TOXICITY VALUES (XTT), single samples” value (ME180 cells; [2]) was 0.535 O.D. @ 450/650 nm and 0.523 O.D. @ 450/650 nm and 0.511 O.D. @ 450/650 nm and the “TOXICITY VALUES (XTT), MEAN” value (ME180 cells; 3.2 μg/ml, no mucin) was 0.503 O.D. @ 450/650 nm. The “TOXICITY VALUES (XTT), single samples” value (ME180 cells; 3.2 μg/ml, no mucin) was 0.486 O.D. @ 450/650 nm and 0.513 O.D. @ 450/650 nm, the “TOXICITY VALUES (XTT), MEAN” value (ME180 cells; [3]) was 0.503 O.D. @ 450/650 nm and the “TOXICITY VALUES (XTT), single samples” value (ME180 cells; [3]) was 0.486 O.D. @ 450/650 nm and 0.513 O.D. @ 450/650 nm. The “TOXICITY VALUES (XTT), MEAN” value (ME180 cells; 10 μg/ml, no mucin) was 0.515 O.D. @ 450/650 nm, the “TOXICITY VALUES (XTT), single samples” value (ME180 cells; 10 μg/ml, no mucin) was 0.493 O.D. @ 450/650 nm and 0.526 O.D. @ 450/650 nm and 0.524 O.D. @ 450/650 nm and the “TOXICITY VALUES (XTT), MEAN” value (ME180 cells; [4]) was 0.515 O.D. @ 450/650 nm. The “TOXICITY VALUES (XTT), single samples” value (ME180 cells; [4]) was 0.493 O.D. @ 450/650 nm and 0.526 O.D. @ 450/650 nm and 0.524 O.D. @ 450/650 nm, the “TOXICITY VALUES (XTT), MEAN” value (ME180 cells; 32 μg/ml, no mucin) was 0.529 O.D. @ 450/650 nm and the “TOXICITY VALUES (XTT), single samples” value (ME180 cells; 32 μg/ml, no mucin) was 0.551 O.D. @ 450/650 nm and 0.513 O.D. @ 450/650 nm and 0.524 O.D. @ 450/650 nm. The “TOXICITY VALUES (XTT), MEAN” value (ME180 cells; [5]) was 0.529 O.D. @ 450/650 nm, the “TOXICITY VALUES (XTT), single samples” value (ME180 cells; [5]) was 0.551 O.D. @ 450/650 nm and 0.513 O.D. @ 450/650 nm and 0.524 O.D. @ 450/650 nm and the “TOXICITY VALUES (XTT), MEAN” value (ME180 cells; 100 μg/ml, no mucin) was 0.143 O.D. @ 450/650 nm. The “TOXICITY VALUES (XTT), single samples” value (ME180 cells; 100 μg/ml, no mucin) was 0.138 O.D. @ 450/650 nm and 0.162 O.D. @ 450/650 nm and 0.128 O.D. @ 450/650 nm, the “TOXICITY VALUES (XTT), MEAN” value (ME180 cells; [6]) was 0.143 O.D. @ 450/650 nm and the “TOXICITY VALUES (XTT), single samples” value (ME180 cells; [6]) was 0.138 O.D. @ 450/650 nm and 0.162 O.D. @ 450/650 nm and 0.128 O.D. @ 450/650 nm. The viability at 6 h, 0.32 µg/mL (in vitro) was 98.6%, the viability at 6 h, 1 µg/mL (in vitro) was 99.2% and the viability at 6 h, 3.2 µg/mL (in vitro) was 95.4%. For the same sequence, the viability at 6 h, 10 µg/mL (in vitro) was 97.7%, the viability at 6 h, 32 µg/mL (in vitro) was 100% and the viability at 6 h, 100 µg/mL (in vitro) was 27.1%.
